Patent publication US11390604B2 (Hoffmann-La Roche Inc., priority 2019, dated 2022)
Counter-ions that a name gives are not always drawn.

System: Acinetobacter baumannii ATCC 17961
Experiment: Antimicrobial susceptibility testing: 90% growth inhibitory concentration (IC90) determination
Type: cell-based
Details: ATCC17961, Acinetobacter baumannii ATCC 17961, Iso-Sensitest broth, read-out: ATCC 17961 IC90
Summary of the method: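 Broth microdilution in Iso-Sensitest medium, twofold series (e.g. 50 to 0.097 μM final), ~5×10^5 CFU/ml inoculum, 35±2 °C. OD600 read every 20 min over 16 h. IC90 derived from growth inhibition during logarithmic phase.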

SMILES	IC90
Cn1c(-c2cn(CCF)nc2C(F)(F)F)cnc1C(=O)Nc1ccc(C(=O)N2CCN(C(=O)[C@H]3C[C@@H](N)C3)CC2)c(Cl)c1 [Example 74, N-[4-[4-(3-aminocyclobutanecarbonyl)piperazine-1-carbonyl]-3-chlorophenyl]-5-[1-(2-fluoroethyl)-3-(trifluoromethyl)pyrazol-4-yl]-1-methylimidazole-2-carboxamide;hydrochloride]	347 nM
Cn1c(-c2cn(Cc3cccnc3)nc2C(F)(F)F)cnc1C(=O)Nc1ccc(C(=O)N2CCN(C(=O)C3(O)CCCNC3)CC2)c(Cl)c1 (centres unmarked) [Example 75, N-[3-chloro-4-[4-(3-hydroxypiperidine-3-carbonyl)piperazine-1-carbonyl]phenyl]-1-methyl-5-[1-(pyridin-3-ylmethyl)-3-(trifluoromethyl)pyrazol-4-yl]imidazole-2-carboxamide;hydrochloride]	542 nM
C#CCn1cc(-c2cnc(C(=O)Nc3ccc(C(=O)N4CCN(C(=O)NCCNC)CC4)c(Cl)c3)n2C)c(C(F)(F)F)n1 [Example 76, 4-[2-chloro-4-[[1-methyl-5-[1-prop-2-ynyl-3-(trifluoromethyl)pyrazol-4-yl]imidazole-2-carbonyl]amino]benzoyl]-N-[2-(methylamino)ethyl]piperazine-1-carboxamide]	247 nM
C#CCn1cc(-c2cnc(C(=O)Nc3ccc(C(=O)N4CCN(C(=O)N5CCNCC5)CC4)c(Cl)c3)n2C)c(C(F)(F)F)n1 [Example 77, N-[3-chloro-4-[4-(piperazine-1-carbonyl)piperazine-1-carbonyl]phenyl]-1-methyl-5-[1-prop-2-ynyl-3-(trifluoromethyl)pyrazol-4-yl]imidazole-2-carboxamide]	257 nM
C#CCn1cc(-c2cnc(C(=O)Nc3ccc(C(=O)N4CCN(C(=O)N[C@H]5C[C@@H](N)C5)CC4)c(Cl)c3)n2C)c(C(F)(F)F)n1 [Example 78, N-(3-aminocyclobutyl)-4-[2-chloro-4-[[1-methyl-5-[1-prop-2-ynyl-3-(trifluoromethyl)pyrazol-4-yl]imidazole-2-carbonyl]amino]benzoyl]piperazine-1-carboxamide]	109 nM
C#CCn1cc(-c2cnc(C(=O)Nc3ccc(C(=O)N4CCN(C(=O)N5CC[C@@H](N)C5)CC4)c(Cl)c3)n2C)c(C(F)(F)F)n1 [Example 79, N-[4-[4-[(3R)-3-aminopyrrolidine-1-carbonyl]piperazine-1-carbonyl]-3-chlorophenyl]-1-methyl-5-[1-prop-2-ynyl-3-(trifluoromethyl)pyrazol-4-yl]imidazole-2-carboxamide]	131 nM
C#CCn1cc(-c2cnc(C(=O)Nc3ccc(C(=O)N4CCN(C(=O)N5CC(C)(N)C5)CC4)c(Cl)c3)n2C)c(C(F)(F)F)n1 [Example 81, N-[4-[4-(3-amino-3-methylazetidine-1-carbonyl)piperazine-1-carbonyl]-3-chlorophenyl]-1-methyl-5-[1-prop-2-ynyl-3-(trifluoromethyl)pyrazol-4-yl]imidazole-2-carboxamide]	227 nM
C#CCn1cc(-c2cnc(C(=O)Nc3ccc(C(=O)N4CCN(C(=O)N[C@H]5CCC[C@H]5N)CC4)c(Cl)c3)n2C)c(C(F)(F)F)n1 [Example 82, N-[(1S,2R)-2-aminocyclopentyl]-4-[2-chloro-4-[[1-methyl-5-[1-prop-2-ynyl-3-(trifluoromethyl)pyrazol-4-yl]imidazole-2-carbonyl]amino]benzoyl]piperazine-1-carboxamide]	160 nM
C#CCn1cc(-c2cnc(C(=O)Nc3ccc(C(=O)N4CCN(C(=O)N[C@H]5CC[C@H](N)C5)CC4)c(Cl)c3)n2C)c(C(F)(F)F)n1 [Example 83, N-[(1S,3S)-3-aminocyclopentyl]-4-[2-chloro-4-[[1-methyl-5-[1-prop-2-ynyl-3-(trifluoromethyl)pyrazol-4-yl]imidazole-2-carbonyl]amino]benzoyl]piperazine-1-carboxamide]	288 nM
C#CCn1cc(-c2cnc(C(=O)Nc3ccc(C(=O)N4CCN(C(=O)N5CCC(N)CC5)CC4)c(Cl)c3)n2C)c(C(F)(F)F)n1 [Example 84, N-[4-[4-(4-aminopiperidine-1-carbonyl)piperazine-1-carbonyl]-3-chlorophenyl]-1-methyl-5-[1-prop-2-ynyl-3-(trifluoromethyl)pyrazol-4-yl]imidazole-2-carboxamide]	191 nM
C#CCn1cc(-c2cnc(C(=O)Nc3ccc(C(=O)N4CCN(C(=O)N5CCC[C@H](N)C5)CC4)c(Cl)c3)n2C)c(C(F)(F)F)n1 [Example 85, N-[4-[4-[(3S)-3-aminopiperidine-1-carbonyl]piperazine-1-carbonyl]-3-chlorophenyl]-1-methyl-5-[1-prop-2-ynyl-3-(trifluoromethyl)pyrazol-4-yl]imidazole-2-carboxamide]	170 nM

The next lines start with the values.

IC90	SMILES
203 nM	C#CCn1cc(-c2cnc(C(=O)Nc3ccc(C(=O)N4CCN(C(=O)N5CC6CNC6C5)CC4)c(Cl)c3)n2C)c(C(F)(F)F)n1 (centres unmarked) [Example 86, N-[3-chloro-4-[4-(3,6-diazabicyclo[3.2.0]heptane-3-carbonyl)piperazine-1-carbonyl]phenyl]-1-methyl-5-[1-prop-2-ynyl-3-(trifluoromethyl)pyrazol-4-yl]imidazole-2-carboxamide]
216 nM	C#CCn1cc(-c2cnc(C(=O)Nc3ccc(C(=O)N4CCN(C(=O)N[C@H]5[C@@H]6CNC[C@@H]65)CC4)c(Cl)c3)n2C)c(C(F)(F)F)n1 [Example 87, 4-[2-chloro-4-[[1-methyl-5-[1-prop-2-ynyl-3-(trifluoromethyl)pyrazol-4-yl]imidazole-2-carbonyl]amino]benzoyl]-N-[rac-(1R,5S)-3-azabicyclo[3.1.0]hexan-6-yl]piperazine-1-carboxamide]
170 nM	C#CCn1cc(-c2cnc(C(=O)Nc3ccc(C(=O)N4CCN(C(=O)N5C[C@@H]6C[C@H]5CN6)CC4)c(Cl)c3)n2C)c(C(F)(F)F)n1 [Example 88, N-[3-chloro-4-[4-[(1S,4S)-2,5-diazabicyclo[2.2.1]heptane-2-carbonyl]piperazine-1-carbonyl]phenyl]-1-methyl-5-[1-prop-2-ynyl-3-(trifluoromethyl)pyrazol-4-yl]imidazole-2-carboxamide]
235 nM	C#CCn1cc(-c2cnc(C(=O)Nc3ccc(C(=O)N4CCN(C(=O)NC5CC6(CNC6)C5)CC4)c(Cl)c3)n2C)c(C(F)(F)F)n1 [Example 89, N-(2-azaspiro[3.3]heptan-6-yl)-4-[2-chloro-4-[[1-methyl-5-[1-prop-2-ynyl-3-(trifluoromethyl)pyrazol-4-yl]imidazole-2-carbonyl]amino]benzoyl]piperazine-1-carboxamide]
218 nM	C#CCn1cc(-c2cnc(C(=O)Nc3ccc(C(=O)N4CCN(C(=O)N5C[C@@H]6CNC[C@H]6C5)CC4)c(Cl)c3)n2C)c(C(F)(F)F)n1 [Example 90, N-[4-[4-[(3aS,6aS)-2,3,3a,4,6,6a-hexahydro-1H-pyrrolo[3,4-c]pyrrole-5-carbonyl]piperazine-1-carbonyl]-3-chlorophenyl]-1-methyl-5-[1-prop-2-ynyl-3-(trifluoromethyl)pyrazol-4-yl]imidazole-2-carboxamide]
170 nM	C#CCn1cc(-c2cnc(C(=O)Nc3ccc(C(=O)N4CCN(C(=O)N5CC6(CCN6)C5)CC4)c(Cl)c3)n2C)c(C(F)(F)F)n1 [Example 91, N-[3-chloro-4-[4-(1,6-diazaspiro[3.3]heptane-6-carbonyl)piperazine-1-carbonyl]phenyl]-1-methyl-5-[1-prop-2-ynyl-3-(trifluoromethyl)pyrazol-4-yl]imidazole-2-carboxamide]
